# Test: Clinical Experiment 2: weight of type 2 diabetics, acarbose-controlled double-blind study
# Format: in vivo, human
# Details: SZ-A = tablets of Embodiment 1 extract, 50 mg total alkaloids each
# Description: • 1. Objective • Effect of Ramulus Mori extract on reducing weight of diabetics. • 2. Experiment method • 2.1 Grouping • Random, double-blind and double-simulation, parallel control of acarbose tablets, multicenter, non-inferiority were adopted in the study design. A total of 600 patients with type 2 diabetes (aged 18 to 70 years old, 19 kg/m^2≤BMI≤30 kg/m^2, 7%≤HbAlC≤10%) and poor blood glucose control were included, and were randomly divided into a total alkaloid tablet group (SZ-A, N=360) and a acarbose (Glucobay®) group (CON, N=240). All signed informed consents. […] (1) From the Pt to the 24th week of administration, the height, weight and weight gain of each group were observed and recorded every day. […]
compound,measurement,setting,value
C[C@H]1O[C@H](O[C@H]2[C@H](O)[C@@H](O)[C@@H](O[C@H]3[C@H](O)[C@@H](O)C(O)O[C@@H]3CO)O[C@@H]2CO)[C@H](O)[C@@H](O)[C@@H]1N[C@H]1C=C(CO)[C@@H](O)[C@H](O)[C@H]1O (some centres unmarked) [acarbose],average change of weight,"type 2 diabetics with BMI≥28 kg/m^2, after 8 weeks of administration",0.210 kg
same,average change of weight,"type 2 diabetics with BMI≥28 kg/m^2, after 24 weeks of administration",-0.182 kg

# Source: patent US20240156889A1, “A METHOD FOR REDUCING ANIMAL WEIGHT” (BEIJING WEHAND-BIO PHARMACEUTICAL CO., LTD, priority 2021, published 2024)
